Test results: US7615353B1, “Tivozanib response prediction” (AVEO Pharmaceuticals, Inc., priority 2009, dated 2009)

Legend:
[1] = target: VEGF receptor 3 (Homo sapiens, UniProt P35916); details: Nakamura et al., 2006; cited from earlier work
[2] = 272-patient Phase 2 clinical trial; Bhargava et al., 2009; cited from earlier work
[3] = test system: preclinical models; details: Nakamura et al., 2006; cited from earlier work
[4] = test system: murine breast tumors (BH archive); assay: tumor response to tivozanib, subcutaneously transplanted murine Her2-driven breast tumors (BH archive) in NCr nude mice; format: in vivo, mouse
Excerpt: A population of more than 100 murine breast tumors (BH archive) was used to identify tumors that are sensitive to tivozanib (responders) and tumors that are resistant to tivozanib (non-responders). The BH archive was established by in vivo propagation and cryopreservation of primary tumor material from more than 100 spontaneous murine breast tumors derived from engineered chimeric mice that develop Her2-dependent, inducible spontaneous breast tumors. The mice were produced essentially as follows.
Tumor cells were isolated by physical disruption of the tumors using cell strainers. Typically 1×10^5 cells were mixed with matrigel (50:50 volume) and injected subcutaneously into female NCr nu/nu mice on upper dorsal region between the shoulder blades. When these tumors grew to approximately 500 mm^3, which typically required 2 to 4 weeks, they were collected for further propagation, drug response testing, and analysis. Analysis included microarray profiling, general histopathology, and IHC (CD31 for tumor vasculature, Ki67 for tumor cell proliferation).
Evaluation of tumor response to tivozanib was performed essentially as follows. Subcutaneously transplanted tumors were established by injecting physically disrupted tumor cells (mixed with Matrigel) into 7 week-old female NCr nude mice. When the tumors reached approximately 200-400 mm^3, 30 tumor-bearing mice were randomized into three groups. Group 1 received vehicle. Group 2 received tivozanib at 5 mg/kg daily by oral gavage. Group 3 received tivozanib at 20 mg/kg daily by oral gavage. Tumors were measured twice per week by a caliper, and tumor volume was calculated. At the end of the treatment, tumors were collected for histopathological analysis and IHC analysis.
Based on tumor growth inhibition and typical histopathological and IHC (CD31) characteristics for angiogenesis inhibition, responders and non-responders were identified. […]

VEGF receptor 3, sequence (P35916 25-1363): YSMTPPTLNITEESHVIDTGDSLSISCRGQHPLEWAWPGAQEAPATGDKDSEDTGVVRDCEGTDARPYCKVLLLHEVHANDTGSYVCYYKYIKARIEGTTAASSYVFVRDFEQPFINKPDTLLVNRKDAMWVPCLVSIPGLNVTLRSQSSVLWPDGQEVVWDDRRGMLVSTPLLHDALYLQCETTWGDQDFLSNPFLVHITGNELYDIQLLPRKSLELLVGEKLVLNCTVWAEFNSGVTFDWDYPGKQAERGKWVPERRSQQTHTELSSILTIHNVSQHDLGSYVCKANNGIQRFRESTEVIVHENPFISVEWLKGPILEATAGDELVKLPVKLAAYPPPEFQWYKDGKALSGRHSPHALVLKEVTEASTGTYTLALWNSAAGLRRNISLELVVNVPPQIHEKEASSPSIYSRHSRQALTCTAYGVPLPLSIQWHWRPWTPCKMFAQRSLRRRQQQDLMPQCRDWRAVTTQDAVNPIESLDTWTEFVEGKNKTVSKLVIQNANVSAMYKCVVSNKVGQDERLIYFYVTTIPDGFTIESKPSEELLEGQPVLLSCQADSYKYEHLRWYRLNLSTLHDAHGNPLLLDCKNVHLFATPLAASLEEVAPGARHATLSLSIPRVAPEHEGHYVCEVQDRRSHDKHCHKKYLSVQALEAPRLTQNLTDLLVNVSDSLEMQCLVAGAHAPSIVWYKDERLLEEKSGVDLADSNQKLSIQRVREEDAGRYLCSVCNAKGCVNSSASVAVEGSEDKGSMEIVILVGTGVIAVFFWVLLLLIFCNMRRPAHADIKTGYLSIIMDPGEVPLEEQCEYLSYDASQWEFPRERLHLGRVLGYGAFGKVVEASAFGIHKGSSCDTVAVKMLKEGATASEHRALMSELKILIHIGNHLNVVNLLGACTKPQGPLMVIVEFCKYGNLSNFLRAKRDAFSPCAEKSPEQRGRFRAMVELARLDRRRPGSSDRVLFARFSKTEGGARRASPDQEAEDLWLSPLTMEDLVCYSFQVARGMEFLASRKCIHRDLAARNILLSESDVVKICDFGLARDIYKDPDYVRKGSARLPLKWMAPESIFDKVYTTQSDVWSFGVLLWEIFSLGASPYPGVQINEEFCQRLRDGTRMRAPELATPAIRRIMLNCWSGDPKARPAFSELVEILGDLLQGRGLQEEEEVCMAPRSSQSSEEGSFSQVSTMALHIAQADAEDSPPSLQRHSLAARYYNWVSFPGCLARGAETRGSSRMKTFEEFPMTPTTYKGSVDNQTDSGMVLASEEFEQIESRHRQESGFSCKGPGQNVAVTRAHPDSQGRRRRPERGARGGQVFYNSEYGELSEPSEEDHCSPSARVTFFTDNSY

Compound: COc1cc2nccc(Oc3ccc(NC(=O)Nc4cc(C)on4)c(Cl)c3)c2cc1OC [Tivozanib, N-{2-chloro-4-[(6,7-dimethoxy-4-quinolyl)oxy]-phenyl}-N′-(5-methyl-3-isoxazolyl)urea]
- inhibitory activity [1]: picomolar
- interim results [2]: positive interim results
- antitumor activity [3]: exhibits antitumor activity
- variation in response among tumors ([4]; 5 or 20 mg/kg daily by oral gavage, tumor growth inhibition, histopathology, IHC (CD31)): significant tumor-to-tumor variation in response
- tumor progression by caliper measurement ([4]; responder tumors, 5 mg/kg daily by oral gavage): no tumor progression
- tumor killing (by histology) ([4]; responder tumors, 5 mg/kg daily by oral gavage, except the peripheries): close to complete tumor killing
